{
  "source": "paper PMC9045272",
  "about": "“Quorum-Sensing Master Regulator VfmE Is a c-di-GMP Effector That Controls Pectate Lyase Production in the Phytopathogen Dickeya dadantii” (Microbiology Spectrum, 2022)",
  "key": {"VfmE": {"target": "T1, VfmE (Dickeya dadantii, UniProt E0SMH0)", "T1 construct": "full length, N-terminal 6xHis-MBP fusion (pMAL-c6T) kept, expressed in E. coli NEBExpress, soluble lysate coated on plate", "T1 sequence (E0SMH0 entry or part of it)": "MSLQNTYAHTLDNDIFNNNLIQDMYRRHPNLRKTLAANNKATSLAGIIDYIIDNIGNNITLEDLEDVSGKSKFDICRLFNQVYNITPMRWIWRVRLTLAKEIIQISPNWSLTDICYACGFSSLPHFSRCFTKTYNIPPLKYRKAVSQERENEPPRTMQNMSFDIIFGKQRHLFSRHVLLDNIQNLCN", "assay": "ELISA with biotinylated c-di-GMP, competed by unlabelled c-di-GMP", "format": "binding", "details": "labelled compound (25 nM biotinylated c-di-GMP, Biolog); competition with 10 uL of 250 nM unlabelled c-di-GMP; PBS pH 7.4, room temperature; plate coated with lysate protein"}, "YcgR from D. dadantii": {"target": "T2, YcgR from D. dadantii (Dickeya dadantii, UniProt E0SAQ7)", "T2 construct": "6xHis-tagged, recombinant, soluble lysate coated on plate", "T2 sequence (E0SAQ7 entry or part of it)": "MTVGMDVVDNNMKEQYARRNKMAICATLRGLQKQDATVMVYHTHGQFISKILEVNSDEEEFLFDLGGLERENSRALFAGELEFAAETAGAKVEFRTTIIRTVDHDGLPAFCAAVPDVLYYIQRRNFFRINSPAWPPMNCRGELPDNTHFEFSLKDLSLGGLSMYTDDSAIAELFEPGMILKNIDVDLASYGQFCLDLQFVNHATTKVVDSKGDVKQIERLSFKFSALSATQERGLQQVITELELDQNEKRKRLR", "assay": "ELISA with biotinylated c-di-GMP, competed by unlabelled c-di-GMP", "format": "binding", "details": "labelled compound (25 nM biotinylated c-di-GMP, Biolog); competition with 10 uL of 250 nM unlabelled c-di-GMP; PBS pH 7.4, room temperature; plate coated with lysate protein; positive control protein"}},
  "data": [
    {"smiles": "Nc1nc2c(ncn2[C@@H]2O[C@@H]3COP(=O)(O)O[C@H]4[C@@H](O)[C@H](n5cnc6c(=O)[nH]c(N)nc65)O[C@@H]4COP(=O)(O)O[C@H]3[C@H]2O)c(=O)[nH]1", "note": "[c-di-GMP]", "values": [
      {"measurement": "ELISA with biotinylated c-di-GMP, competed by unlabelled c-di-GMP", "setting": "VfmE", "value": "VfmE binds c-di-GMP with specificity comparable to that of a known c-di-GMP effector, YcgR"},
      {"measurement": "ELISA with biotinylated c-di-GMP, competed by unlabelled c-di-GMP", "setting": "YcgR from D. dadantii", "value": "We observed a reduced absorbance in both VfmE- and YcgR-treated wells"}
    ]}
  ]
}
